As a reminder, the IC50 is the point on the concentration scale where inhibition reaches its midpoint.

The structures appear in SMILES notation.

One experiment relates to Escherichia coli Tat pathway. Nature of the experiment: Live cell assay: total mCherry fluorescence of cells producing spTorA-mCherry-SsrA (primary HTS assay). The settings on record: Escherichia coli, read-out: IC50 (Live Cell Assay). Type of experiment: cell-based. The source says: Having obtained the calibration and validation data described in the previous sections, we next established the protocol for the HTS. Details are provided in the Materials and Methods section. Here, we briefly summarize the assay. A single colony of E. coli strain MC4100(DE3) containing plasmids encoding TatABC and spTorA-mCherry-SsrA was inoculated into LB and grown overnight. The next morning, cells were transferred to fresh media, the production of TatABC and spTorA-mCherry-SsrA was induced, and cultures were aliquoted onto plates with test compounds. NaSCN was included in control wells to simulate a hit. Cells were grown for 8 h, followed by incubation at 4°C overnight, and then read the next day. Setting the total cellular fluorescence obtained with spTorA-mCherry-H6 under Tat^++ conditions to 100%, spTorA-mCherry-SsrA yielded a total cellular fluorescence signal of 63±14%, consistent with SsrA-induced degradation of the mCherry protein. The total cellular fluorescence was further reduced to 36±14% in the presence of 30 mM NaSCN (simulated hit), and to 41±6% in the absence of TatABC, verifying the Δψ- and Tat-dependence of the fluorescence signal (Fig 4D).
A single colony of E. coli strain MC4100(DE3) (pTatABC-DUET1, pTorA-mCherry-SsrA) was inoculated into a 100 mL LB culture supplemented with Ap and Cm and grown at 37°C with shaking (250 rpm) overnight. Cells were harvested by centrifugation at 4,000g for 10 min at room temperature (RT), suspended in 10 mL fresh LB broth supplemented with Ap and Cm, and the optical density (A500) was determined. Simultaneously, 700 mL LB supplemented with 100 mM arabinose, 2 mM IPTG, 100 μg/mL Ap and 68 μg/mL Cm was filter-sterilized (0.22 μm), and then divided into 200 mL (A) and 500 mL (B) portions. Sterile NaSCN (30 mM final; 1.5 mL of 4 M NaSCN) was added to portion A, and an equal ratio of sterile water was added to portion B (3.75 mL). Media and cells were transferred to the HTS facility on ice.
A CyBi-Well vario pipetting workstation (CyBio, Jena, Germany) was used to dispense library compounds and cultures. Library compounds (1 μL) solubilized in DMSO were added to 384-well black, clear-bottomed plates (Greiner Bio-one, Germany) in columns 3 to 22 (320 wells/plate). For controls, DMSO (1 μL) was added to each well in columns 1, 2, […], to achieve DMSO uniformity across the plate. Both portions of LB media were inoculated with E. coli MC4100(DE3) (pTatABC-DUET1, pTorA-mCherry-SsrA) from the concentrated stock to a final A500 = 0.15. The media with 30 mM NaSCN (positive control, or simulated hit) was dispensed into each well of columns 1 and 24 (49 μL each). An equivalent volume of media without NaSCN was dispensed into each well of columns 2 to 23. Columns 2 and 23 lacked NaSCN and test compounds and served as negative controls. The first 12,800 compounds were screened at 5 μM (plates 1–40), and the remaining 38,800 compounds were screened at 20 μM (plates 41–162).
The plates containing cells and dispersed test compounds were grown with shaking (200 rpm) at 25°C for 8 h. Plates were individually mounted, not stacked, on a hollow plastic platform, allowing adequate air circulation. Following the 8 h incubation, plates were transferred to 4°C for 16 h. Each plate was covered with an empty plate to prevent condensation on the lid. […] Following the incubation, plates were read using a BMG Polarstar Omega plate reader (BMG Labtech, Ortenberg, Germany) to determine optical densities (A500) and mCherry fluorescence intensities (EX = 584 nm, EM = 620 nm).
Supplementary file pone.0149659.s003.tiff: S3 Fig IC50's for Hit Compound 181^JS. (A) The total cellular mCherry fluorescence (live cell assay; n = 1), (B) the in vitro NADH-dependent Tat transport efficiency of pre-SufI (n = 1), and (C) the maximum transmembrane electrical potential gradient (n = 1) were measured for a range of concentrations of compound 181^JS (S2E Fig). (D) SDS-PAGE gel showing in-gel fluorescence data used in (B). […]
For `N#CC(C#N)=NNc1ccccc1Br` [Compound 1, [(2-bromophenyl)hydrazono]malononitrile], the IC50 worked out at 6 µM.

For the compound `Oc1cc(Cl)ccc1Oc1ccc(Cl)cc1Cl` [Compound 18^NIH, 5-Chloro-2-(2,4-dichlorophenoxy)phenol], the IC50 stood at 2 µM.

`O=[N+]([O-])c1cc([N+](=O)[O-])c2ccccc2c1Cl` [Compound 51, 1-chloro-2,4-dinitronaphthalene]: the IC50 came to 20 µM.

For the compound `FC(F)(F)c1cccc(-c2cccc3cnccc23)c1` [Compound 140, 5-[3-(trifluoromethyl)phenyl]isoquinoline], the IC50 came out at 14 µM.

Regarding `O=C(Nc1cccc(C(F)(F)F)c1)Nc1ncc([N+](=O)[O-])s1` [Compound 181^JS, 1-(5-nitro-1,3-thiazol-2-yl)-3-[3-(trifluoromethyl)phenyl]urea], the half-inhibitory concentration (IC50) came out at 20 µM.

Take `O=[N+]([O-])c1ccc(O)c(-c2cccs2)c1` [Compound 202, 4-nitro-2-thiophen-2-ylphenol]: the IC50 stood at 5 µM.

The same experiment, now with this note: Tat++ conditions; appears to be a consequence of growth inhibition.
For `Cc1ccc(S(=O)(=O)/C=C/C#N)cc1` [Bay 11–7082], the “effect on synthesis of spTorA-mCherry-SsrA” value is “inhibited synthesis”.

For the compound `O=C1C=CC(=O)N1c1ccccc1` [N-phenylmaleimide], the “effect on synthesis of spTorA-mCherry-SsrA” value is recorded as “inhibited synthesis”.

Staying with this experiment, now noted: mCherry fluorescence intensity during in vivo cell growth, Tat++ conditions, 384-well plate; read-out: IC50 (Live Cell Assay).
Take `N#CC1c2ccccc2-n2nncc2CN1Cc1cc(Cl)cc(Cl)c1` (stereo not drawn) [21^NIH, 5-[(3,5-dichlorophenyl)methyl]-4,6-dihydrotriazolo[1,5-a][1, 4]benzodiazepine-6-carbonitrile]: the IC50 was found to be 13 µM.

As for `Fc1nc(F)c(F)c(NNC(=S)Nc2cccc(C(F)(F)F)c2)c1F` [Compound 111, 1-[(2,3,5,6-tetrafluoropyridin-4-yl)amino]-3-[(3-trifluoromethyl)phenyl]thiourea], the IC50 was determined as 31 µM.

The test system of another experiment is Pseudomonas aeruginosa Tat machinery.
Assay: not given
Also noted: method as in PMID 23006747. The note with it: cited from earlier work.
Consider `Cc1ccc(S(=O)(=O)/C=C/C#N)cc1` [Bay 11–7082], for which the “activity on the Pseudomonas aeruginosa Tat machinery” value is listed as “identified as inhibitors”.

For `O=C1C=CC(=O)N1c1ccccc1` [N-phenylmaleimide], the “activity on the Pseudomonas aeruginosa Tat machinery” value was “identified as inhibitors”.
